{
  "source": "patent US12616753B2",
  "about": "“HSP70 inhibitors and methods of using same” (THE WISTAR INSTITUTE, priority 2020, dated 2026)",
  "key": {"HT-29 tumor xenografts": {"test_system": "HT-29 tumor xenografts", "assay": "HT-29 tumor xenograft in NSG mice", "type": "in vivo", "conditions": "12.5 mg/kg three times per week", "experimental": "FIGS. 4A-4F show AP-4-139B is efficacious as a single agent against human CRC in vitro and in vivo. FIG. 4A: Three CRC cell lines (HT-29, LS411N, and SW620) were treated with 10 μM of PET-16 or AP-4-139B for 48 hours. Cell were then subjected to viability assays using Trypan Blue exclusion. *** p<0.001. […] FIGS. 4B-4C: A panel of six CRC cell lines (SW620, HT-29, HCT 116+/−p53, RKO, and LS411N) were plated at a density of 1,000 cells per well in 96-well plates. The next day, cells were treated with the indicated inhibitors for 72 hours. Cells were then subjected to the Alamar Blue cell viability assays. Shown are representative IC50 values of an average of six technical replicates and two biological replicates. FIG. 4D: 2.5×10^6 HT-29 cells were injected subcutaneously into the right flank of NSG mice. Once tumors reached an approximate volume of 100 mm^3, mice were separated randomly into two groups: control vs. AP-4-139B. Mice were treated with 12.5 mg/kg AP-4-139B three times a week. All mice were euthanized 22 days after the start of treatment. Tumor volumes were recorded using digital calipers and using the formula v=length×width^2×0.52. *** p<0.001. n=10 mice per group. FIG. 4E: Immunohistochemistry (IHC) analysis of HT-29 xenograft tumors treated with AP-4-139B. Shown are representative images (4-6 random fields of view per condition) of Ki67 (proliferation) and Cleaved Lamin A (cell death). n=4 mice per group. Scale bar=100 μm. Respective IgG antibody was used as the negative control.\nFIGS. 8A-8E show HSP70 inhibition is effective on mouse CRC cell lines. FIG. 8A: Association of HSPA1A gene expression and survival rate of patients with colorectal adenocarcinoma (COAD). Patient data was gathered from USCS Xena platform (GDC-TCGA COAD; n=435). Log-rank test was used to determine significance. p=0.0004. FIG. 8B: Association of HSPA1A gene expression and stage of COAD (n=440). Wilcoxon rank sum test was used to determine significance. * p<0.05, *** p<0.001. FIG. 8C: Body weights of mice injected with HT-29 tumor xenografts. Weights were measured at the start of the treatment to determine mouse toxicity. n.s. not significant, n=10 mice per group. FIG. 8D: H&E staining of livers and colons of mice injected with HT-29 tumor xenografts. Tissues were collected at the end of the study. FIG. 8E. Pharmacokinetic values of AP-4-139B in the liver, plasma, and brain from three CDI mice treated with 10 mg/kg of compound.\nShown are representative images of COXIV and a-SMA. n=5 mice per group. Scale bar=100 μm.\nAll studies were carried out in accordance with the recommendations in the Guide for the Care and Use of Laboratory Animals of the National Institutes of Health (NIH). All protocols were approved by The Wistar Institute Institutional Animal Care and Use Committee (IACUC). Mice were housed in plastic cages with ad libitum diet and maintained with a 12-hour dark/12-hour light cycle at 22° C. For human xenograft studies, 2.5×10^6 HT-29 cells were injected subcutaneously into the right flanks of 6-8 week old male NSG (NOD.Cg-Prkdcscid II2rgtm1 Wjl/SzJ) mice. For mouse xenograft studies, 1×10^6 MC38 cells were subcutaneously into the right flanks of 6-8 week old male C57Bl/6J mice. Tumor volumes were measured using digital calipers and tumor volume was calculated using the formula: volume=(length×width^2)×0.52. All mice were monitored daily for signs of pain or distress."}, "MC38 cells": {"test_system": "MC38 cells", "assay": "Membrane associated calreticulin analysis by flow cytometry", "type": "cell-based, mouse", "conditions": "24 hours", "experimental": "FIG. 6D: MC38 cells were treated with 5 μM AP-4-139B for 24 hours and subjected to flow cytometry, using Alexa488-tagged calreticulin antibody. *** p<0.001, n=4 biological replicates performed in duplicate. FIG. 6E: MC38 cells were treated with increasing concentrations of AP-4-139B, G-TPP, 17-AAG or Metformin for 3 hours and then assayed for extracellular ATP release. Three independent cultures were assayed for each treatment, and DMSO-treated cells were used as internal controls. Error bars represent standard deviation (SD).\nFlow cytometry was used to detect calreticulin localization after exposure to Doxorubicin (positive control) or AP-4-139B. MC38 cells were plated at a density of 3×10^5 cells per well in 6-well plates. The following day, cells were treated with 1 μM of doxorubicin, 15 μM of AP-4-139B (MC38), or 5 μM of AP-4-139B (CT26). After 24 hours, cells were collected and stained with anti-CRT antibody (ab196158) (Abcam) diluted in a solution of 1% FBS in PBS for 30 minutes on ice in the dark. Cells were then washed with PBS and stained with DAPI (1 μg/mL) for 5 minutes prior to analysis. Samples were analyzed using a FACSCelesta (Becton Dickinson) flow cytometer. […] Fluorescent intensity of DAPI negative cells was measured and at least 10,000 events in the analysis gate were obtained."}},
  "data": [
    {"compound": "c1ccc(-c2cn3nc(CCCCCC[P+](c4ccccc4)(c4ccccc4)c4ccccc4)sc3n2)cc1", "note": "[AP-4-139B, Triphenyl(6-(6-phenylimidazo[2,1-b][1,3,4]thiadiazol-2-yl)hexyl)phosphonium bromide]", "values": [
      {"measurement": "Ki-67 staining in tumors", "setting": "HT-29 tumor xenografts", "result": "reduced staining for Ki-67"},
      {"measurement": "cleaved lamin A staining in tumors (apoptosis)", "setting": "HT-29 tumor xenografts", "result": "increased staining for cleaved lamin A"},
      {"measurement": "loss of mitochondria in treated tumors (COX IV staining)", "setting": "HT-29 tumor xenografts", "result": "No evidence was found that AP-4-139B caused obvious loss of mitochondria"},
      {"measurement": "progression of HT-29 tumor xenografts", "setting": "HT-29 tumor xenografts", "result": "significantly reduced the progression of HT-29 tumor xenografts"},
      {"measurement": "toxicity (weight loss, liver or colon architecture)", "setting": "HT-29 tumor xenografts", "result": "No evidence for toxicity"},
      {"measurement": "calreticulin mobilization to the plasma membrane", "setting": "MC38 cells", "result": "calreticulin mobilization to the plasma membrane"}
    ]}
  ]
}
